Source: ChEMBL document CHEMBL5113453, “Design, synthesis, and biological evaluation of a new series of pyrazole derivatives: Discovery of potent and selective JNK3 kinase inhibitors” (Bioorg Med Chem, 2022)

Columns and labels:
Type in all cases: functional, cell-based
HL-60(TB) = assay: Antiproliferative activity against human HL-60(TB) cells measured after 48 hrs by SRB assay
K562 = assay: Antiproliferative activity against human K562 cells measured after 48 hrs by SRB assay
MOLT-4 = assay: Antiproliferative activity against human MOLT-4 cells measured after 48 hrs by SRB assay
RPMI-8226 = assay: Antiproliferative activity against human RPMI-8226 cells measured after 48 hrs by SRB assay
SR = assay: Antiproliferative activity against human SR cells measured after 48 hrs by SRB assay
A549 = assay: Antiproliferative activity against human A549 cells measured after 48 hrs by SRB assay
EKVX = assay: Antiproliferative activity against human EKVX cells measured after 48 hrs by SRB assay
NCI-H226 = assay: Antiproliferative activity against human NCI-H226 cells measured after 48 hrs by SRB assay
NCI-H322M = assay: Antiproliferative activity against human NCI-H322M cells measured after 48 hrs by SRB assay
NCI-H522 = assay: Antiproliferative activity against human NCI-H522 cells measured after 48 hrs by SRB assay
HCT-116 = assay: Antiproliferative activity against human HCT-116 cells measured after 48 hrs by SRB assay
HCT-15 = assay: Antiproliferative activity against human HCT-15 cells measured after 48 hrs by SRB assay
KM12 = assay: Antiproliferative activity against human KM12 cells measured after 48 hrs by SRB assay
SW-620 = assay: Antiproliferative activity against human SW-620 cells measured after 48 hrs by SRB assay
SF-268 = assay: Antiproliferative activity against human SF-268 cells measured after 48 hrs by SRB assay
SNB-19 = assay: Antiproliferative activity against human SNB-19 cells measured after 48 hrs by SRB assay
SNB-75 = assay: Antiproliferative activity against human SNB-75 cells measured after 48 hrs by SRB assay
Malme-3M = assay: Antiproliferative activity against human Malme-3M cells measured after 48 hrs by SRB assay
M14 = assay: Antiproliferative activity against human M14 cells measured after 48 hrs by SRB assay
SK-MEL-28 = assay: Antiproliferative activity against human SK-MEL-28 cells measured after 48 hrs by SRB assay
UACC-62 = assay: Antiproliferative activity against human UACC-62 cells measured after 48 hrs by SRB assay
OVCAR-3 = assay: Antiproliferative activity against human OVCAR-3 cells measured after 48 hrs by SRB assay
OVCAR-4 = assay: Antiproliferative activity against human OVCAR-4 cells measured after 48 hrs by SRB assay
OVCAR-5 = assay: Antiproliferative activity against human OVCAR-5 cells measured after 48 hrs by SRB assay
OVCAR-8 = assay: Antiproliferative activity against human OVCAR-8 cells measured after 48 hrs by SRB assay
NCI/ADR-RES = assay: Antiproliferative activity against human NCI-ADR-RES cells measured after 48 hrs by SRB assay
SK-OV-3 = assay: Antiproliferative activity against human SK-OV-3 cells measured after 48 hrs by SRB assay
786-0 = assay: Antiproliferative activity against human 786-0 cells measured after 48 hrs by SRB assay
A498 = assay: Antiproliferative activity against human A498 cells measured after 48 hrs by SRB assay
ACHN = assay: Antiproliferative activity against human ACHN cells measured after 48 hrs by SRB assay
CAKI-1 = assay: Antiproliferative activity against human CAKI-1 cells measured after 48 hrs by SRB assay
RXF 393 = assay: Antiproliferative activity against human RXF 393 cells measured after 48 hrs by SRB assay
SN12C = assay: Antiproliferative activity against human SN12C cells measured after 48 hrs by SRB assay
PC-3 = assay: Antiproliferative activity against human PC-3 cells measured after 48 hrs by SRB assay
DU-145 = assay: Antiproliferative activity against human DU-145 cells measured after 48 hrs by SRB assay
BT-549 = assay: Antiproliferative activity against human BT-549 cells measured after 48 hrs by SRB assay
WI-38 = assay: Antiproliferative activity against human WI-38 cells measured by MTT assay

## O=C1c2ccccc2-c2n[nH]c3cccc1c23
HL-60(TB); HL-60, 48 h
  IC50: 42.1 µM
HL-60(TB); HL-60, time 48 hrs
  TGI: > 100 µM
K562; K562, 48 h
  IC50: 48.6 µM
K562; K562, time 48 hrs
  TGI: > 100 µM
MOLT-4; MOLT-4, 48 h
  IC50: 20.4 µM
MOLT-4; MOLT-4, time 48 hrs
  TGI: > 100 µM
RPMI-8226; RPMI-8226, 48 h
  IC50: 18.8 µM
RPMI-8226; RPMI-8226, time 48 hrs
  TGI: > 100 µM
SR; 48 h
  IC50: 13.1 µM
SR; time 48 hrs
  TGI: > 100 µM
A549; A549, 48 h
  IC50: 14.9 µM
A549; A549, time 48 hrs
  TGI: > 100 µM
EKVX; 48 h
  IC50: 20 µM
EKVX; time 48 hrs
  TGI: > 100 µM
NCI-H226; NCI-H226, 48 h
  IC50: 22.9 µM
NCI-H226; NCI-H226, time 48 hrs
  TGI: > 100 µM
NCI-H322M; 48 h
  IC50: 24.9 µM
NCI-H322M; time 48 hrs
  TGI: > 100 µM
NCI-H522; NCI-H522, 48 h
  IC50: 12.2 µM
NCI-H522; NCI-H522, time 48 hrs
  TGI: 50.4 µM
HCT-116; HCT-116, 48 h
  IC50: 44.6 µM
HCT-116; HCT-116, time 48 hrs
  TGI: > 100 µM
HCT-15; HCT-15, 48 h
  IC50: 8.04 µM
HCT-15; HCT-15, time 48 hrs
  TGI: > 100 µM
KM12; KM12, 48 h
  IC50: 2.62 µM
KM12; KM12, time 48 hrs
  TGI: 72.1 µM
SW-620; SW-620, 48 h
  IC50: 10.9 µM
SW-620; SW-620, time 48 hrs
  TGI: > 100 µM
SF-268; SF-268, 48 h
  IC50: 18.4 µM
SF-268; SF-268, time 48 hrs
  TGI: > 100 µM
SNB-19; SNB-19, 48 h
  IC50: 50 µM
SNB-19; SNB-19, time 48 hrs
  TGI: > 100 µM
SNB-75; SNB-75, 48 h
  IC50: 16.9 µM
SNB-75; SNB-75, time 48 hrs
  TGI: 97.5 µM
Malme-3M; 48 h
  IC50: 16.4 µM
Malme-3M; time 48 hrs
  TGI: 58.9 µM
M14; M14, 48 h
  IC50: > 100 µM
M14; M14, time 48 hrs
  TGI: > 100 µM
SK-MEL-28; SK-MEL-28, 48 h
  IC50: 37.5 µM
SK-MEL-28; SK-MEL-28, time 48 hrs
  TGI: > 100 µM
UACC-62; UACC-62, 48 h
  IC50: 14.6 µM
UACC-62; UACC-62, time 48 hrs
  TGI: 86.5 µM
OVCAR-3; OVCAR-3, 48 h
  IC50: 15.3 µM
OVCAR-3; OVCAR-3, time 48 hrs
  TGI: 92 µM
OVCAR-4; OVCAR-4, 48 h
  IC50: 31.9 µM
OVCAR-4; OVCAR-4, time 48 hrs
  TGI: > 100 µM
OVCAR-5; OVCAR-5, 48 h
  IC50: 24.4 µM
OVCAR-5; OVCAR-5, time 48 hrs
  TGI: 85.5 µM
OVCAR-8; OVCAR-8, 48 h
  IC50: 22 µM
OVCAR-8; OVCAR-8, time 48 hrs
  TGI: > 100 µM
NCI/ADR-RES; 48 h
  IC50: 22.6 µM
NCI/ADR-RES; time 48 hrs
  TGI: 59.2 µM
SK-OV-3; SK-OV-3, 48 h
  IC50: 21 µM
SK-OV-3; SK-OV-3, time 48 hrs
  TGI: > 100 µM
786-0; 786-0, 48 h
  IC50: 27.1 µM
786-0; 786-0, time 48 hrs
  TGI: > 100 µM
A498; A498, 48 h
  IC50: 7.03 µM
A498; A498, time 48 hrs
  TGI: 35.4 µM
ACHN; 48 h
  IC50: 6.64 µM
ACHN; time 48 hrs
  TGI: > 100 µM
CAKI-1; CAKI-1, 48 h
  IC50: 3.56 µM
CAKI-1; CAKI-1, time 48 hrs
  TGI: 18.2 µM
RXF 393; RXF 393, 48 h
  IC50: 20.8 µM
RXF 393; RXF 393, time 48 hrs
  TGI: > 100 µM
SN12C; 48 h
  IC50: 14.8 µM
SN12C; time 48 hrs
  TGI: > 100 µM
PC-3; PC-3, 48 h
  IC50: 23.3 µM
PC-3; PC-3, time 48 hrs
  TGI: > 100 µM
DU-145; DU-145, 48 h
  IC50: 28.2 µM
DU-145; DU-145, time 48 hrs
  TGI: > 100 µM
BT-549; BT-549, 48 h
  IC50: 30.8 µM
BT-549; BT-549, time 48 hrs
  TGI: > 100 µM
WI-38
  IC50: > 20 µM
